For one experiment, the system named is Gefäßmuskulatur. To be noted: described in DE 32 32 462; cited from earlier work.
The next experiment deals with Neuronen. The experiment can be described thus: Effect (hyperpolarising activity) on neurons. The experiment is classed as cell-based, Ratten.
Experiment [1] relates to MIPP-N1E-115-Neuroblastomlinie. The experiment can be described thus: Hyperpolarising activity in neuroblastoma cell line. Format: cell-based. To be noted: for hyperpolarisierende Wirkung: MIPP-N1E-115 neuroblastoma line.
In a further experiment the test system is A10-Zellen. The experiment in a line: Activity on vascular tissue (A10 cells). Format: cell-based. To be noted: read-out: IC₅₀.
For another experiment, the system named is ATP-abhängige K-Kanäle. The experiment in a line: Glyburide sensitivity of the hyperpolarising effect. Format: cell-based. Conditions: with glyburide.
The subject of experiment [2] is Zellinie des glatten Muskels. The experiment can be described thus: Activity in a smooth muscle cell line. Format: cell-based.
For experiment [3], the system named is Neuronen vom Typ der Pyramidenzellen aus dem Hippocampus. The experiment in a line: Neuroprotection on single neurons of the central nervous system. To be noted: single neurons from rat CNS; inhibition of raised calcium during long-term depolarisation. Format: cell-based, Ratten.

pEC50, pIC50: −log10 of the molar value. Like-named read-outs stand apart in the source and are kept apart here. Where only a bound is given, the exact number is not on record here.

The source of these data is patent EP0561237A2, “Enantiomer, (-)-N-(2-ethoxyphenyl)-N'-(1,2,2-trimethylpropyl)-2-nitromethene-1,1-diamine, process for its preparation and its use” (BAYER AG, priority 1992, dated 1993).

`CCOc1ccccc1NC(=C[N+](=O)[O-])NC(C)C(C)(C)C` (racemic) [racemische Gemisch, N-(2-Ethoxyphenyl)-N'-(1,2,2-trimethylpropyl)-2-nitroethen-1,1-diamin]: the “Wirkung auf die Gefäßmuskulatur” value in the experiment with Gefäßmuskulatur was “eine Wirkung auf die Gefäßmuskulatur ausübt”.

Consider `CCOc1ccccc1NC(=C[N+](=O)[O-])NC(C)C(C)(C)C` (single isomer, unassigned; (+)) [Beispiel 2, (+)-N-(2-Ethoxyphenyl)-N'-(1,2,2-trimethylpropyl)-2-nitroethen-1,1-diamin], for which the “Blockierung der Wirkung des (-)-Enantiomers auf Neuronen” value with Neuronen ((+)-enantiomer 1 µM against effect of 5 pM (-)-enantiomer) was “blockiert”. Moreover, in the experiment with Neuronen (Neuron, in neurons, read-out: EC₅₀-Wert), the pEC50 was 6.30. Also, the “Konzentration, bei der wirksam, als Vielfaches der Konzentration des (-)-Enantiomers” value with Neuronen (multiple of the 5 pM concentration of the (-)-enantiomer in neurons) was > 10 000 -fach. For the same molecule, the “hyperpolarisierende Wirkung” value in experiment [1] (listed as (+)-Enantiomer) is recorded as “nicht auf das (+)-Enantiomer anspricht”. The pIC50 in the experiment with A10-Zellen (listed as (+)-Enantiomer) was 7.82. In the experiment on ATP-abhängige K-Kanäle (listed as (+)-Enantiomer), the “hyperpolarisierende Wirkung, Blockierbarkeit durch Glyburide” value is “durch Glyburide inhibierbares Hyperpolarisierungsmittel”.

For `CCOc1ccccc1NC(=C[N+](=O)[O-])NC(C)C(C)(C)C` (single isomer, unassigned; (-)) [Beispiel 1, (-)-N-(2-Ethoxyphenyl)-N'-(1,2,2-trimethylpropyl)-2-nitroethen-1,1-diamin], the pIC50 with Neuronen (Neuron, in neurons, read-out: IC₅₀-Wert) is 11.30; in the experiment on A10-Zellen (listed as (-)-Enantiomer) it was 6.60. For the same molecule, the “hyperpolarisierende Wirkung” value in experiment [1] (listed as (-)-Enantiomer) is “wirksam”. Moreover, the pEC50 in experiment [1] (Neuroblastoma cell, newly found hyperpolarising activity not blocked by glyburide, read-out: EC₅₀) is greater than 11.00. For the same molecule, in experiment [2], the Wirksamkeit result is “unwirksam”. The Neuroprotektion result in experiment [3] is reported as “bemerkenswerte Neuroprotektion”. Also, the “hyperpolarisierende Wirkung, Blockierbarkeit durch Glyburide” value in the experiment on ATP-abhängige K-Kanäle (listed as (-)-Enantiomer) is recorded as “durch Glyburide nicht blockiert”.
